Common to all, as to assay: Off-chip Mobility Shift Assay (MSA) kinase inhibition
Type in all cases: biochemical

One assay addresses T1, JAK3 (Homo sapiens, UniProt P52333).
T1 construct: purchased Carna Biosciences
T1 sequence (P52333 1-1124): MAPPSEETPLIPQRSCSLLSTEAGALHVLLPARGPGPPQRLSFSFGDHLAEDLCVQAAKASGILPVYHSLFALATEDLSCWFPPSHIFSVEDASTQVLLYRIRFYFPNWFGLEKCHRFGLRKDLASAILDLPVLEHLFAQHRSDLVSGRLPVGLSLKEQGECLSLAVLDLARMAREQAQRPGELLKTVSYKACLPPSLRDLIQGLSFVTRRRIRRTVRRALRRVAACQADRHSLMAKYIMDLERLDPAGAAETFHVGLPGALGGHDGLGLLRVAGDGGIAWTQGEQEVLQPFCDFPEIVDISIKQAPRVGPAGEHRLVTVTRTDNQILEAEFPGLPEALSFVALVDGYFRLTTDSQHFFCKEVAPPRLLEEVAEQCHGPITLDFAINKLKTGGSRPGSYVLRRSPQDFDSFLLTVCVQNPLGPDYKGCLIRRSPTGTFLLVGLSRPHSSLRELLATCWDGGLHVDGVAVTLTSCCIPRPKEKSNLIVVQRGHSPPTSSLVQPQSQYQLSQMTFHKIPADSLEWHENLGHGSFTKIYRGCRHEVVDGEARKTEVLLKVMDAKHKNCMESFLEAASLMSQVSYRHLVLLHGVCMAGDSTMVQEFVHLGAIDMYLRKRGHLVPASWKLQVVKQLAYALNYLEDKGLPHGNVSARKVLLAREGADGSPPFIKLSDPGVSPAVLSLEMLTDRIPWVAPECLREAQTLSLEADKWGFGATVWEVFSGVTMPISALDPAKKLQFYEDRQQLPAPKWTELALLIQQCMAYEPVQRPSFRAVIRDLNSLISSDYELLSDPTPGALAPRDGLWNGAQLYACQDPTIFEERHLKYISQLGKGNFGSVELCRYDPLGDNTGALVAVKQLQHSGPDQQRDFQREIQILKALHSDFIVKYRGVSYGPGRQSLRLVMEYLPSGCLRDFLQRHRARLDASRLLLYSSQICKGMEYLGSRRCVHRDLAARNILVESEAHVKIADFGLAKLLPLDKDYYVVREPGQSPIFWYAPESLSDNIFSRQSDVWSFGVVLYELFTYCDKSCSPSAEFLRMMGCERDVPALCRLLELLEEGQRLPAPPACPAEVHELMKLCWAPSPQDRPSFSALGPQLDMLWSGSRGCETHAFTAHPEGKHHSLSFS
To be noted: for inhibition at 0.1 µM: inhibitor concentration 0.1 μM. The essentials: (§1)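 Off-chip mobility shift read-out of kinase activity. Buffer: 20 mM HEPES pH 7.5, 0.01% Triton X100, 2 mM DTT; compound, substrate/ATP/metal and kinase incubated 1 or 5 h at RT.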

For another assay, the target named is T2, KIT(D816V) (Homo sapiens, UniProt P10721, D816V).
T2 construct: purchased Carna Biosciences
T2 sequence (P10721 26-976 D816V): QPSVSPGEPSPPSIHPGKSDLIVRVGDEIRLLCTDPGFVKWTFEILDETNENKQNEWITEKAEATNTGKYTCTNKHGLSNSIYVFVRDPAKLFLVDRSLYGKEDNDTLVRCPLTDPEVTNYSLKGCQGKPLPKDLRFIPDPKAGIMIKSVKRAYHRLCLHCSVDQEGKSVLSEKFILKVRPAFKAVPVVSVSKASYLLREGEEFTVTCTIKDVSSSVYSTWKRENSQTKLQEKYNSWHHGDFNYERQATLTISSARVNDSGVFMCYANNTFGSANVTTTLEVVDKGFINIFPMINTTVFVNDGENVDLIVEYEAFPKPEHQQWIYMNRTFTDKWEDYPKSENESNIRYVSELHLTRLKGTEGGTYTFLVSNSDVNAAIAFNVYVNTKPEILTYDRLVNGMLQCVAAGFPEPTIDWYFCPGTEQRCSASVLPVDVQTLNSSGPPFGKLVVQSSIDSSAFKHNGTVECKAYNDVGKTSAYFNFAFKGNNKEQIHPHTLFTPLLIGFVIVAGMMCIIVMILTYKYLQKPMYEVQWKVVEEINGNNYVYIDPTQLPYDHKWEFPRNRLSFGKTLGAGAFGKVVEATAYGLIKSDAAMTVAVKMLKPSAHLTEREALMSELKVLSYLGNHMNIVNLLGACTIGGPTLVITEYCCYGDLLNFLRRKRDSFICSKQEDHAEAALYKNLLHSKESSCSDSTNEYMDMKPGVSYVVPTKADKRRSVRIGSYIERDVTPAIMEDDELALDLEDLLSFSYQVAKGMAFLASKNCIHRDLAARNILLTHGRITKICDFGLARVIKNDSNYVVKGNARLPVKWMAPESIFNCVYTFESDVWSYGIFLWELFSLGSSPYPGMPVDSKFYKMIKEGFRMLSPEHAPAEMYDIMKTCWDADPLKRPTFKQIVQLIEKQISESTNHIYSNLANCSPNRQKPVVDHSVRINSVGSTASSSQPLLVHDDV
The settings on record: for inhibition at 0.1 µM: inhibitor concentration 0.1 μM. The essentials: as §1

The next assay has as its target T3, LCK (Homo sapiens, UniProt P06239).
T3 construct: purchased Carna Biosciences
The settings on record: for inhibition at 0.1 µM: inhibitor concentration 0.1 μM. The essentials: as §1

Another assay addresses T4, RAF1 (Homo sapiens, UniProt P04049).
T4 construct: purchased Carna Biosciences
To be noted: for inhibition at 0.1 µM: inhibitor concentration 0.1 μM. In a few lines:
as §1

In a further assay the target is T5, ABL(E255K) (Homo sapiens, UniProt P00519, E255K).
T5 construct: purchased Carna Biosciences
To be noted: inhibitor concentration 0.1 μM. In a few lines: as §1

The target in the next assay is T6, AurA (Homo sapiens, UniProt O14965).
T6 construct: purchased Carna Biosciences
T6 sequence (O14965 1-403): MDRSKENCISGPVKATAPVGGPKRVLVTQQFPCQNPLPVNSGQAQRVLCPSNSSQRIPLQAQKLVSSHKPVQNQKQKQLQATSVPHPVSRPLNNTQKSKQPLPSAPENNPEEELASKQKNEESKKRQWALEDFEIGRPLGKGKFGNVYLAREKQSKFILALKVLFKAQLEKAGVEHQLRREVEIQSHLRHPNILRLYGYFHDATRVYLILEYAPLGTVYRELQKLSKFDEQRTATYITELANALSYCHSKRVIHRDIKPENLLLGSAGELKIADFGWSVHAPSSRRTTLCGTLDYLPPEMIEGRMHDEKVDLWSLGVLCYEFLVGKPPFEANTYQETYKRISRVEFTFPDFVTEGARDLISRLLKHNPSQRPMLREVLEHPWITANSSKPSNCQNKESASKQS
To be noted: for inhibition at 0.1 µM: inhibitor concentration 0.1 μM. The essentials:
as §1

For a further assay, the target named is T7, HER4 (Homo sapiens, UniProt Q15303).
T7 construct: purchased Carna Biosciences
T7 sequence (Q15303 26-1308): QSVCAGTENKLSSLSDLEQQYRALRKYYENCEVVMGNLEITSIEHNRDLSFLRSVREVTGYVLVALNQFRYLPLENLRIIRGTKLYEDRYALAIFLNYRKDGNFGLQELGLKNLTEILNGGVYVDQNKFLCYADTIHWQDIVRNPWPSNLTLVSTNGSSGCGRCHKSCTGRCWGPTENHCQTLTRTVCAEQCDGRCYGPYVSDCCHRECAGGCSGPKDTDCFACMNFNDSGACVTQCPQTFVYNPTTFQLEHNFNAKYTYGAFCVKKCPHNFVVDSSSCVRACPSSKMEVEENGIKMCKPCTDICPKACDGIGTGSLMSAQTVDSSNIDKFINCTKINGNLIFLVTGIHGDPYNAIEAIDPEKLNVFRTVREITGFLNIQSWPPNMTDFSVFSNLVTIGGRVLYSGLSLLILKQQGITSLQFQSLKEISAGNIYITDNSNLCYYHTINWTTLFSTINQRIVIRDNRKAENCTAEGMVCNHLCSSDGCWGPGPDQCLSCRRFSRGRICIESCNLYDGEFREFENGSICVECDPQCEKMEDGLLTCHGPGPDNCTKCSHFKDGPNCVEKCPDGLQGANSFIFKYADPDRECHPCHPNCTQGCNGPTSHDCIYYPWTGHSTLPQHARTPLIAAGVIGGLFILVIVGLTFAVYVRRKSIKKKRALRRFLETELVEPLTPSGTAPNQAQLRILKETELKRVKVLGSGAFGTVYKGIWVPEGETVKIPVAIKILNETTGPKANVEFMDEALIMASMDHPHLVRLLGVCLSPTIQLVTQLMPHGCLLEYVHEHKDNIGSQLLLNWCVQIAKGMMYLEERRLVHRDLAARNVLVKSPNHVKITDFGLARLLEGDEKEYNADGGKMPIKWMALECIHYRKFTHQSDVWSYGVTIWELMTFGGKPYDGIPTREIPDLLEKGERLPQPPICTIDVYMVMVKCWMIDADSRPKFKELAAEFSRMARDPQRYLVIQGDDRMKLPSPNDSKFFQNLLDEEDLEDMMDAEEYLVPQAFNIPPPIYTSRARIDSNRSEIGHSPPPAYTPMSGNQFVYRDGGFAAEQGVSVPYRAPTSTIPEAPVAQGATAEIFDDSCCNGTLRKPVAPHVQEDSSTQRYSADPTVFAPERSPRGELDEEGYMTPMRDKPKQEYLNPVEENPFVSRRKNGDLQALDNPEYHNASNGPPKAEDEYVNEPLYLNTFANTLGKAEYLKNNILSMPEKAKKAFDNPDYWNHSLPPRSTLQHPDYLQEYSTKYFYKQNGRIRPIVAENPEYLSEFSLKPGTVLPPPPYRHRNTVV
The settings on record: for inhibition at 0.1 µM: inhibitor concentration 0.1 μM. In a few lines:
as §1

Another assay deals with T8, IGF1R (Homo sapiens, UniProt P08069).
T8 construct: purchased Carna Biosciences
To be noted: for inhibition at 0.1 µM: inhibitor concentration 0.1 μM. In a few lines:
as §1

The target in a further assay is T9, MAP2K1 (Homo sapiens, UniProt Q02750).
T9 construct: purchased Carna Biosciences
To be noted: for inhibition at 0.1 µM: inhibitor concentration 0.1 μM. In a few lines:
as §1

For the next assay, the target named is T10, MAP2K2 (Homo sapiens, UniProt P36507).
T10 construct: purchased Carna Biosciences
The settings on record: for inhibition at 0.1 µM: inhibitor concentration 0.1 μM. In a few lines:
as §1

The next assay deals with T11, MAPKAPK2 (Homo sapiens, UniProt P49137).
T11 construct: purchased Carna Biosciences
The settings on record: inhibitor concentration 0.1 μM. In a few lines: as §1

The next assay has as its target T12, MNK2 (Homo sapiens, UniProt Q9HBH9).
T12 construct: purchased Carna Biosciences
To be noted: for inhibition at 0.1 µM: inhibitor concentration 0.1 μM. In a few lines: as §1

The next assay deals with T13, RET (Homo sapiens, UniProt P07949).
T13 construct: purchased Carna Biosciences
T13 sequence (P07949 29-1114): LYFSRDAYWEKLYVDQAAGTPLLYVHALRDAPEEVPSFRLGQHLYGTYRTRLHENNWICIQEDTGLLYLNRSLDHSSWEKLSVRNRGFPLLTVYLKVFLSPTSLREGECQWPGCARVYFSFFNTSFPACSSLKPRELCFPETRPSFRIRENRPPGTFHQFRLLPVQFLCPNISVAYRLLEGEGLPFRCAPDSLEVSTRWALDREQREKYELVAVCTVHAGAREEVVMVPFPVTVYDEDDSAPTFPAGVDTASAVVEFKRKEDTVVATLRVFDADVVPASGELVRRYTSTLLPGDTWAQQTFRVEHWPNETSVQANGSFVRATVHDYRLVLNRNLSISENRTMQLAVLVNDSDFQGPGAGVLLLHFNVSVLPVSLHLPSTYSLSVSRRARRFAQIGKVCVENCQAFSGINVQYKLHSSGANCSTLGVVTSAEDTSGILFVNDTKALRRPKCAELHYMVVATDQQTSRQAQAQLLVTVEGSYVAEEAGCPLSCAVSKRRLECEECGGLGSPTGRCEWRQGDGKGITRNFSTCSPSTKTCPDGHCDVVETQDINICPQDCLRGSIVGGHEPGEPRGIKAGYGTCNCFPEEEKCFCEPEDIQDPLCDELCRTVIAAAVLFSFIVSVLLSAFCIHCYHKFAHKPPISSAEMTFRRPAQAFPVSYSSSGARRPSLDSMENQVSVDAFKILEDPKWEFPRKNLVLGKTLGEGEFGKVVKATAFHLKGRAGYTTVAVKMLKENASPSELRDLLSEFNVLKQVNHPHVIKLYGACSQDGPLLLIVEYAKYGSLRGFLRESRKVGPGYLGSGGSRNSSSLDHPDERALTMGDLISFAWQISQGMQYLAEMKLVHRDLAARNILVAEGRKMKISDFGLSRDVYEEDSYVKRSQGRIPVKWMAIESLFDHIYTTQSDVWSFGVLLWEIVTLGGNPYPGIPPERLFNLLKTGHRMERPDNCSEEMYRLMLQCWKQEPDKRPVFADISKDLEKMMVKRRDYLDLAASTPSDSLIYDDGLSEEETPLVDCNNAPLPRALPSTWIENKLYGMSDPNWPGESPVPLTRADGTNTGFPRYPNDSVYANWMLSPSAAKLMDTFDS
The settings on record: for inhibition at 0.1 µM: inhibitor concentration 0.1 μM. In a few lines: as §1

Setting [1] is: inhibitor concentration 0.01 μM, 0.01 µM.
Setting [2] is: inhibitor concentration 0.01 μM.

In general, inhibition refers to how much of the control response was suppressed.

T12 sequence (Q9HBH9 whole entry): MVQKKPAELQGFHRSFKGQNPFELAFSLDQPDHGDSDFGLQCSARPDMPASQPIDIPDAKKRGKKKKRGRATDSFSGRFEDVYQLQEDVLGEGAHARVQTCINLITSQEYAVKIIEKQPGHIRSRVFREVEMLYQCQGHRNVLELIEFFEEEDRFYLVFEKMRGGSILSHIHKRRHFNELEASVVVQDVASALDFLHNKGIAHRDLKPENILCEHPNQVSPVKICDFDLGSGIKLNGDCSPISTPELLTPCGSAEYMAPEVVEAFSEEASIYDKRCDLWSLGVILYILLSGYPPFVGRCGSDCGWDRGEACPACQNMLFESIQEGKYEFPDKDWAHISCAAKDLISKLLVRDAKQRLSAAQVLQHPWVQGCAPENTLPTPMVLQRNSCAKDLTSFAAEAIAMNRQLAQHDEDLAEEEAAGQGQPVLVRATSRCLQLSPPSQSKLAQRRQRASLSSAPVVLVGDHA
T4 sequence (P04049 whole entry): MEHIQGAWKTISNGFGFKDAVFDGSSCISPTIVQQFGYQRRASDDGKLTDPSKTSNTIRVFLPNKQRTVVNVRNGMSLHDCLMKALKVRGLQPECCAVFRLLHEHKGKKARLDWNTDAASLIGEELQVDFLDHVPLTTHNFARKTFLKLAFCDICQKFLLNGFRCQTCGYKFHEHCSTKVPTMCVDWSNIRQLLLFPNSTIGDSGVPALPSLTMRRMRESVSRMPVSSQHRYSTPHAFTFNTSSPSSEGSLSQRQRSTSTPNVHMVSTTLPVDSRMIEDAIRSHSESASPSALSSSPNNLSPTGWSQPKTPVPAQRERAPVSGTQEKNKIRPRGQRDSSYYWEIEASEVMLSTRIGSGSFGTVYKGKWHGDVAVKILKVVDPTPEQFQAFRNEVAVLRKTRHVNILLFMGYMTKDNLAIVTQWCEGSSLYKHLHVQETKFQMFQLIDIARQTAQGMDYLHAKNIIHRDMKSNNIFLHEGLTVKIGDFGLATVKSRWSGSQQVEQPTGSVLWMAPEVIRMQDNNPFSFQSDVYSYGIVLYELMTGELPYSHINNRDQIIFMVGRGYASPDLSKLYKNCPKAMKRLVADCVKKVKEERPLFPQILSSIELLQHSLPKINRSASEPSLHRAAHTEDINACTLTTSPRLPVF
T3 sequence (P06239 whole entry): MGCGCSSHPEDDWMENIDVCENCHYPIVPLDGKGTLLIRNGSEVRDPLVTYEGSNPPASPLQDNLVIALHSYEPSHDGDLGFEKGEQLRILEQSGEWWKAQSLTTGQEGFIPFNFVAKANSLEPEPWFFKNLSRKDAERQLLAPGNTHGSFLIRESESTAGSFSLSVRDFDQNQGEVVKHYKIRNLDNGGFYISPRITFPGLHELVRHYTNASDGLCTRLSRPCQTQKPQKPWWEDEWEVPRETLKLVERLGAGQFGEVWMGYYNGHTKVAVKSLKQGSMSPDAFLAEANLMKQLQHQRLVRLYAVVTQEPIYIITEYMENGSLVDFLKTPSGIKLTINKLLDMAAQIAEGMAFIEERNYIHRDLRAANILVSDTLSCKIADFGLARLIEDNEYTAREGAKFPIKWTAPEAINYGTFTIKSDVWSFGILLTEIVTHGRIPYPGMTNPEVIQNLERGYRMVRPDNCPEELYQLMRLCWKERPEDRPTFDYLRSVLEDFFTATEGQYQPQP

Consider `C/C=C/S(=O)(=O)Nc1ccc(F)c(C(=O)c2c[nH]c3ncc(-c4ccc(Cl)cc4)cc23)c1F` [200-93b], for which the JAK3 inhibition at JAK3 (setting [1]) is given as less than 20%. On KIT(D816V) (setting [1]), the “KIT(D816V) inhibition” value was less than 20%. Further, the LCK inhibition on LCK (setting [1]) was greater than 20%. In addition, the RAF1 inhibition on RAF1 (setting [1]) is listed as greater than 20%.

Take `CC(=O)CS(=O)(=O)Nc1ccc(F)c(C(=O)c2c[nH]c3ncc(-c4ccc(Cl)cc4)cc23)c1F` [200-117]: the inhibition at 0.1 µM at ABL(E255K), on AurA, on HER4, at IGF1R, at JAK3 and at KIT(D816V) was less than 30% throughout. Also, the inhibition at 0.1 µM at LCK is greater than 30%; at MAP2K1, less than 30%; on MAP2K2 it was less than 30%; on MAPKAPK2, less than 30%; at MNK2, greater than 30%; on RAF1, greater than 30%. Besides, the inhibition at 0.1 µM at RET was less than 30%.

For the compound `O=C(c1c(F)ccc(NS(=O)(=O)CC(O)CO)c1F)c1c[nH]c2ncc(-c3ccc(Cl)cc3)cc12` (stereo not drawn) [200-73, N-[3-[5-(4-chlorophenyl)-lH-pyrrolo [2,3-b]pyridine-3-carbonyl]-2,4-difluorophenyl]-2,3-dihydroxypropane-l-sulfonamide], the inhibition at 0.1 µM at ABL(E255K), at AurA, at HER4, at IGF1R, on JAK3 and on KIT(D816V) was less than 30% throughout. Besides, the inhibition at 0.1 µM was less than 30% on LCK; less than 30% on MAP2K1; less than 30% at MAP2K2; less than 30% at MAPKAPK2; less than 30% on MNK2; greater than 30% on RAF1. Further, the inhibition at 0.1 µM on RET is less than 30%.

For `CC(O)CS(=O)(=O)Nc1ccc(F)c(C(=O)c2c[nH]c3ncc(-c4ccc(Cl)cc4)cc23)c1F` (stereo not drawn) [200-115], the inhibition at 0.1 µM on ABL(E255K), on AurA, on HER4, on IGF1R, at JAK3 and at KIT(D816V) was less than 30% in each case. Moreover, the inhibition at 0.1 µM on LCK is greater than 30%; on MAP2K1 it was less than 30%; on MAP2K2 it was less than 30%; at MAPKAPK2, less than 30%; on MNK2, less than 30%; on RAF1, greater than 30%. Moreover, the inhibition at 0.1 µM at RET was less than 30%.

In the case of `O=C(c1c(F)ccc(NS(=O)(=O)CCCO)c1F)c1c[nH]c2ncc(-c3ccc(Cl)cc3)cc12` [200-17, N-[3-[5-(4-chlorophenyl)-1H-pyrrolo[2,3-b]pyridine-3-carbonyl]-2,4-difluorophenyl]-3-hydroxypropane-1-sulfonamide], the inhibition at 1 µM is greater than 50% on AurA (inhibitor concentration 1 μM); greater than 50% at HER4 (inhibitor concentration 1 μM); less than 50% on IGF1R (inhibitor concentration 1 μM); greater than 50% at JAK3 (inhibitor concentration 1 μM); greater than 50% at KIT(D816V) (inhibitor concentration 1 μM); greater than 50% at LCK (inhibitor concentration 1 μM). The inhibition at 1 µM at MAP2K1 (inhibitor concentration 1 μM) is less than 50%; on MAP2K2 (inhibitor concentration 1 μM), less than 50%; at MNK2 (inhibitor concentration 1 μM), greater than 50%; on RAF1 (inhibitor concentration 1 μM), greater than 50%; on RET (inhibitor concentration 1 μM), greater than 50%. Also, the inhibition at 0.01 µM on JAK3 (setting [2]) is less than 30%; on LCK (setting [2]), greater than 30%; on RET (setting [2]) it was less than 30%. The inhibition at 0.1 µM on JAK3 is less than 50%; on LCK, greater than 50%; at RET, less than 50%.

These data come from patent publication US10106538B2, “Inhibitors of protein kinases” (PRINCETON DRUG DISCOVERY INC, priority 2015, dated 2018).
